In US20230277504A1, “COMPOSITIONS AND METHODS COMPRISING CELECOXIB OR RELATED COMPOUNDS AND DEXTROMETHORPHAN” (ANTECIP BIOVENTURES II LLC, priority 2012, published 2023):
Where “and” joins values, the source holds several entries; their conditions need not be identical. Equal entries are not always repeated. Where two headings read alike, the source gives them in different places.

Experiments:
[1] = biological target: T1, dextromethorphan metabolism (demethylation; CYP2D6) in human liver microsomes (Homo sapiens, UniProt P10635); experiment: Inhibition of dextromethorphan metabolism in human liver microsomes; format: in vitro ADME
T1 construct: in the presence of dextromethorphan (2.5 μM) and human liver microsomes (0.5 mg/mL) at 37° C; from tissue; host or cells: human liver microsomes
Description: Inhibition of dextromethorphan metabolism was examined using human liver microsomes. […] In addition, the assay contained NADPH (2 mM), MgCl2 (3 mM), and potassium phosphate buffer (50 mM) at pH 7.4. The assay was initiated by adding the NADPH, and incubation was terminated after 10 minutes by addition of acetonitrile. The samples were centrifuged, and the metabolism of dextromethorphan was analyzed by LC/MS/MS. […] The same assay was carried out on a number of NSAIDs.

pain = conditions: cited from earlier work
[2] = extensive metabolizers of dextromethorphan; 'believed to be'; cited from earlier work

T1 sequence (P10635 whole entry): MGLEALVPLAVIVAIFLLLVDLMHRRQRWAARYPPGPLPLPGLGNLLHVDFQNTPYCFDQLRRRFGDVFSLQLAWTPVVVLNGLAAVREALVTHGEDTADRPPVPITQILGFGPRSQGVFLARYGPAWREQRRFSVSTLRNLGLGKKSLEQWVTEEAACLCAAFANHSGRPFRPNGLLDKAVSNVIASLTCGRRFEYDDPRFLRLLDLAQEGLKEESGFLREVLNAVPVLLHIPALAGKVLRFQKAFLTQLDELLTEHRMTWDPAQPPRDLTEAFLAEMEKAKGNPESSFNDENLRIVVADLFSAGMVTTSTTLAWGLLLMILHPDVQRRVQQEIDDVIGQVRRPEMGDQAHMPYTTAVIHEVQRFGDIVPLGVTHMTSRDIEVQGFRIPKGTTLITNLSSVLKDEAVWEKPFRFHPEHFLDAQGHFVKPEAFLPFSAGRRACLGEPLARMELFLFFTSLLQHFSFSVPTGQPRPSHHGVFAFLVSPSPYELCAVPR

In the case of `Cc1ccc(-c2cc(C(F)(F)F)nn2-c2ccc(S(N)(=O)=O)cc2)cc1` [Celecoxib], the IC50 [1] is reported as 2.6 to 2.9 µM, the “times as active at inhibiting the metabolism of dextromethorphan as the next best compound” value [1] is reported as “about five” and the IC50 ([1]; IC50 (inhibition of dextromethorphan metabolism), human liver microsomes 0.5 mg/mL, dextromethorphan 2.5 μM, NADPH 2 mM, 37° C., pH 7.4, 10 minutes, LC/MS/MS) is reported as 2.6 µM and 2.9 µM. The “times as active at inhibiting the metabolism of dextromethorphan as 6-methoxy-2-naphthyl acetic acid” value ([1]; human, 10 min, pH 7.4) was “more than 500 times”.

Molecule `CC1=C(CC(=O)O)c2cc(F)ccc2/C1=C\c1ccc([S+](C)[O-])cc1` (stereo not shown) [Sulindac] has an IC50 [1] of over 36 µM.

`CC(C(=O)O)c1ccc(-c2ccccc2)c(F)c1` (stereo not shown) [Flurbiprofen] gave an IC50 [1] of over 320 µM.

`Cc1onc(-c2ccccc2)c1-c1ccc(S(N)(=O)=O)cc1` [Valdecoxib] showed an IC50 [1] of 15.2 µM.

`CS(=O)(=O)c1ccc(C2=C(c3ccccc3)C(=O)OC2)cc1` [Rofecoxib] gave an IC50 [1] of 44.5 µM.

`COc1ccc2cc(CC(=O)O)ccc2c1` [6-methoxy-2-naphthyl acetic acid] gave an IC50 ([1]; human liver microsomes 0.5 mg/mL, dextromethorphan 2.5 μM, NADPH 2 mM, 37° C., pH 7.4, 10 minutes, LC/MS/MS, read-out: IC50 (inhibition of dextromethorphan metabolism)) of over 1760 µM.

In the case of `COc1ccc2c(c1)[C@]13CCCC[C@@H]1[C@H](C2)N(C)CC3` [dextromethorphan, Dextromethorphan], the analgesic efficacy (pain; double-blind human studies in chronic and neuropathic pain, review of Weinbroum et al.) is listed as “ineffective for the most part”, the “pain reduction versus placebo” value (pain; patients with diabetic neuropathy and postherpetic neuralgia, Sang et al.) is listed as “did not reduce pain significantly more than placebo” and the analgesic efficacy (pain; patients with facial neuralgias, Gilron et al.) is listed as “little or no analgesic efficacy”. For the same molecule, the clearance [2] was “about 110 L/min”.
